In ChEMBL document CHEMBL1201862, “PubChem BioAssay data set” (2004):
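Test compounds were applied to cells in 96-well plates for 48 hours at 5 doses. GI50: concentration for 50% inhibition of growth.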 Activity calls are given as the source filed them. Rule as the data show it: active = GI50 up to about 1.1 µM and inactive = higher.

Columns and labels:
Assay in all cases: growth of human tumour cells (NCI), 48 h
[1] = system: LXFL 529
[2] = system: HCT-116
[3] = system: OVCAR-5
[4] = system: TK-10
[5] = system: SF-268
[6] = system: KM-20L2
[7] = system: NCI-H522
[8] = system: COLO 205
[9] = system: NCI-H226
[10] = system: CCRF-CEM
[11] = system: HCC 2998
[12] = system: U-251
[13] = system: OVCAR-3
[14] = system: RPMI-8226
[15] = system: A549
[16] = system: IGROV-1
[17] = system: SK-OV-3
[18] = system: DMS-273
[19] = system: EKVX
[20] = system: SN12C
[21] = system: SNB-19
[22] = system: KM12
[23] = system: SW-620
[24] = system: SNB-78
[25] = system: HT-29
[26] = system: OVCAR-4
[27] = system: DMS-114
[28] = system: HOP-62
[29] = system: UACC-62
[30] = system: NCI-H460
[31] = system: M14
[32] = system: SF-295
[33] = system: HCT-15
[34] = system: RXF 393
[35] = system: SR
[36] = system: LOX IMVI
[37] = system: UACC-257
[38] = system: SK-MEL-28
[39] = system: Malme-3M
[40] = system: ACHN
[41] = system: XF498
[42] = system: SF-539
[43] = system: K562
[44] = system: UO-31
[45] = system: 786-0
[46] = system: SK-MEL-2
[47] = system: A498
[48] = system: HL-60
[49] = system: CAKI-1
[50] = system: OVCAR-8
[51] = system: HOP-18
[52] = system: SK-MEL-5
[53] = system: HOP-92
[54] = system: NCI-H23
[55] = system: DLD-1
[56] = system: M19-MEL
[57] = system: SNB-75
[58] = system: MOLT-4
[59] = system: NCI/ADR-RES
[60] = system: MCF7

Compound: Cc1c(C(=O)CC(=O)C(=O)Nc2ccccc2C(F)(F)F)[n+]([O-])c2ccccc2[n+]1[O-]
- GI50 [1]: 20.8 µM (inactive)
- GI50 [2]: 14.7 µM (inactive)
- GI50 [3]: 26.8 µM (inactive)
- GI50 [4]: 46.8 µM (inactive)
- GI50 [5]: 21.2 µM (inactive)
- GI50 [6]: 33.7 µM (inactive)
- GI50 [7]: 16.4 µM (inactive)
- GI50 [8]: 12.3 µM (inactive)
- GI50 [9]: > 100 µM (inactive)
- GI50 [10]: 18.6 µM (inactive)
- GI50 [11]: 13.4 µM (inactive)
- GI50 [12]: 19.6 µM (inactive)
- GI50 [13]: 2.63 µM (inactive)
- GI50 [14]: 4.69 µM (inactive)
- GI50 [15]: 24.2 µM (inactive)
- GI50 [16]: 18 µM (inactive)
- GI50 [17]: 25.5 µM (inactive)
- GI50 [18]: 25.8 µM (inactive)
- GI50 [19]: 19.5 µM (inactive)
- GI50 [20]: 22.2 µM (inactive)
- GI50 [21]: 32.1 µM (inactive)
- GI50 [22]: 19.5 µM (inactive)
- GI50 [23]: 16.2 µM (inactive)
- GI50 [24]: 47.2 µM (inactive)
- GI50 [25]: 18.5 µM (inactive)
- GI50 [26]: 18.1 µM (inactive)
- GI50 [27]: 11.5 µM (inactive)
- GI50 [28]: 44 µM (inactive)
- GI50 [29]: 18 µM (inactive)
- GI50 [30]: 21.3 µM (inactive)
- GI50 [31]: 15.2 µM (inactive)
- GI50 [32]: 31.6 µM (inactive)
- GI50 [33]: 16.8 µM
- GI50 [34]: 19.2 µM (inactive)
- GI50 [35]: 2.09 µM (inactive)
- GI50 [36]: 18.7 µM (inactive)
- GI50 [37]: 18.4 µM (inactive)
- GI50 [38]: 27.4 µM (inactive)
- GI50 [39]: 20.6 µM (inactive)
- GI50 [40]: 62.2 µM (inactive)
- GI50 [41]: 9.44 µM (inactive)
- GI50 [42]: 23.2 µM (inactive)
- GI50 [43]: 22 µM (inactive)
- GI50 [44]: 35.1 µM (inactive)
- GI50 [45]: 33.6 µM (inactive)
- GI50 [46]: 19.8 µM (inactive)
- GI50 [47]: > 100 µM (inactive)
- GI50 [48]: 28.2 µM (inactive)
- GI50 [49]: 26.7 µM (inactive)
- GI50 [50]: 18.2 µM (inactive)
- GI50 [51]: 2.2 µM (inactive)
- GI50 [52]: 16.3 µM (inactive)
- GI50 [53]: 16.2 µM (inactive)
- GI50 [54]: 17.4 µM (inactive)

Compound: CCCN/C(N)=N/C#N
- GI50 [1]: 76.6 µM (inactive)
- GI50 [2]: 67 µM (inactive)
- GI50 [3]: > 100 µM (inactive)
- GI50 [4]: > 100 µM (inactive)
- GI50 [5]: 44.2 µM (inactive)
- GI50 [6]: 34.7 µM (inactive)
- GI50 [55]: 66.8 µM (inactive)
- GI50 [7]: > 100 µM (inactive)
- GI50 [8]: 18 µM (inactive)
- GI50 [56]: 77.6 µM (inactive)
- GI50 [9]: > 100 µM (inactive)
- GI50 [11]: > 100 µM (inactive)
- GI50 [12]: 46.7 µM (inactive)
- GI50 [13]: > 100 µM (inactive)
- GI50 [14]: > 100 µM (inactive)
- GI50 [15]: > 100 µM (inactive)
- GI50 [16]: > 100 µM (inactive)
- GI50 [17]: > 100 µM (inactive)
- GI50 [18]: 62.1 µM (inactive)
- GI50 [19]: > 100 µM (inactive)
- GI50 [20]: > 100 µM (inactive)
- GI50 [21]: > 100 µM (inactive)
- GI50 [22]: > 100 µM (inactive)
- GI50 [57]: > 100 µM (inactive)
- GI50 [23]: 13.6 µM (inactive)
- GI50 [24]: > 100 µM (inactive)
- GI50 [25]: 30.8 µM (inactive)
- GI50 [26]: 37.1 µM (inactive)
- GI50 [27]: 19.4 µM (inactive)
- GI50 [28]: > 100 µM (inactive)
- GI50 [29]: > 100 µM (inactive)
- GI50 [30]: > 100 µM (inactive)
- GI50 [31]: > 100 µM (inactive)
- GI50 [32]: > 100 µM (inactive)
- GI50 [33]: 19.4 µM
- GI50 [34]: > 100 µM (inactive)
- GI50 [58]: > 100 µM (inactive)
- GI50 [35]: 25.1 µM (inactive)
- GI50 [37]: > 100 µM (inactive)
- GI50 [38]: > 100 µM (inactive)
- GI50 [39]: > 100 µM (inactive)
- GI50 [40]: > 100 µM (inactive)
- GI50 [42]: > 100 µM (inactive)
- GI50 [43]: 60.3 µM (inactive)
- GI50 [44]: > 100 µM (inactive)
- GI50 [45]: 25.3 µM (inactive)
- GI50 [46]: > 100 µM (inactive)
- GI50 [47]: 67.6 µM (inactive)
- GI50 [48]: > 100 µM (inactive)
- GI50 [49]: > 100 µM (inactive)
- GI50 [50]: > 100 µM (inactive)
- GI50 [51]: > 100 µM (inactive)
- GI50 [52]: > 100 µM (inactive)
- GI50 [53]: > 100 µM (inactive)
- GI50 [54]: > 100 µM (inactive)

Compound: CC1C(=O)C(C)C(c2cccs2)N(N=O)C1c1cccs1 (stereo unspecified)
- GI50 [2]: > 100 µM (inactive)
- GI50 [3]: > 100 µM (inactive)
- GI50 [5]: > 100 µM (inactive)
- GI50 [6]: > 100 µM (inactive)
- GI50 [55]: > 100 µM (inactive)
- GI50 [7]: 37.7 µM (inactive)
- GI50 [8]: > 100 µM (inactive)
- GI50 [56]: > 100 µM (inactive)
- GI50 [9]: > 100 µM (inactive)
- GI50 [10]: > 100 µM (inactive)
- GI50 [11]: > 100 µM (inactive)
- GI50 [12]: > 100 µM (inactive)
- GI50 [13]: 9.27 µM (inactive)
- GI50 [14]: > 100 µM (inactive)
- GI50 [15]: > 100 µM (inactive)
- GI50 [16]: > 100 µM (inactive)
- GI50 [17]: > 56 µM (inactive)
- GI50 [18]: > 100 µM (inactive)
- GI50 [19]: > 100 µM (inactive)
- GI50 [20]: > 100 µM (inactive)
- GI50 [21]: > 100 µM (inactive)
- GI50 [22]: > 100 µM (inactive)
- GI50 [57]: 28.1 µM (inactive)
- GI50 [23]: > 100 µM (inactive)
- GI50 [24]: > 68.2 µM (inactive)
- GI50 [25]: > 35 µM (inactive)
- GI50 [26]: > 100 µM (inactive)
- GI50 [27]: 95.1 µM (inactive)
- GI50 [28]: > 100 µM (inactive)
- GI50 [29]: > 100 µM (inactive)
- GI50 [59]: > 100 µM (inactive)
- GI50 [30]: > 100 µM (inactive)
- GI50 [32]: > 100 µM (inactive)
- GI50 [33]: > 100 µM
- GI50 [34]: > 100 µM (inactive)
- GI50 [58]: > 100 µM (inactive)
- GI50 [36]: > 100 µM (inactive)
- GI50 [37]: > 100 µM (inactive)
- GI50 [38]: > 100 µM (inactive)
- GI50 [41]: 14.8 µM (inactive)
- GI50 [42]: > 100 µM (inactive)
- GI50 [43]: > 80.5 µM (inactive)
- GI50 [44]: > 100 µM (inactive)
- GI50 [46]: > 89.9 µM (inactive)
- GI50 [48]: > 100 µM (inactive)
- GI50 [60]: > 100 µM (inactive)
- GI50 [49]: > 100 µM (inactive)
- GI50 [50]: > 100 µM (inactive)
- GI50 [51]: 11.4 µM (inactive)
- GI50 [52]: > 100 µM (inactive)
- GI50 [53]: 68.5 µM (inactive)
- GI50 [54]: > 100 µM (inactive)
